Data reported in patent US20220288004A1, “TREATMENT AND PREVENTION OF AGING RELATED-DISEASE AND/OR AGING BY THE INHIBITION OF SPHINGOLIPIDS” (ECOLE POLYTECHNIQUE FEDERALE DE LAUSANNE (EPFL), priority 2019, published 2022).

How the values were obtained:
aged C57Bl/6JRj mice = assay: Ad libitum locomotion during 10 min in aged mice; assay type: in vivo, mouse; settings: myriocin 0.4 mg/kg i.p. 3 times per week, 5 months
Experimental: FIG. 9. Sphingolipid depletion protects against frailty phenotypes. (a) Distance moved in 10 mins. (b) Average velocity during 10 minutes of observation. (c) Glucose tolerance test. (d) Time exploring familiar and novel objects. (e) Recognition index. Aged (18-month-old) C57BL/6JRj mice were treated with intraperitoneal injections of myriocin (MYR) for 5 months @ 0.4 mg/kg/3 times per week.
Human frailty syndrome is characterized by weakness, decreased walking speed, exhaustion, weight loss, and low physical activity. […] Frailty predicts falls in older people. […] In object recognition test, myriocin treated mice spent more exploring both the familiar object and novel object as compared to their DMSO treated counterparts (FIG. 9d). Although this could be partly attributable to the higher physical activity of myriocin treated mice, the treated mice were more interested in the novel than familiar object as compared to untreated mice.

mdx mice = assay: Myriocin treatment of mdx mice (Duchenne muscular dystrophy model); assay type: in vivo, mouse
Experimental: Next the activity of sphingolipid synthesis was inhibited in a mouse model of Duchenne muscular dystrophy. Mdx, a dystrophin deficient mouse model, was treated with myriocin (0.4 mg/kg/3 times a week intraperitoneally) for 2 months. […] Furthermore, after downhill running, plasma levels of creatine kinase (CK) were lower in myriocin treated mice compared to controls (FIG. 8f).
Endurance running test. The exercise regimen on a treadmill commenced at a speed of 9 cm/s. As the mice were aged, an inclination of 0 degrees was used. Mice were considered to be exhausted, and removed from the treadmill if they received 7 or more shocks (0.2 mA) per minute for two consecutive minutes. The distance traveled and time before exhaustion were registered as maximal running distance and time.
Grip strength. Muscle strength was assessed by grip strength test. The grip strength of each mouse was measured on a pulldown grid assembly connected to a grip strength meter (Columbus Instruments). The mouse was drawn along a straight line parallel to the grip, providing peak force. The experiment was repeated three times, and the highest value was included in the analysis.
Rotarod test. The rotarod test measures muscle strength, coordination, and endurance. Mice were left undisturbed in the room for 30 min. The speed of the rotating cylinder (rotarod) increased from 0 to 40 rpm in 5 min. Each mouse had 3 trials per day for 3 consecutive days. The latency and speed the mouse reached it passive rotation or fall from the rotor was recorded, and the latency and speed of the best trial of the second day is presented.

[1] = myriocin 0.4 mg/kg 3 times a week intraperitoneally, 2 months

CCCCCCC(=O)CCCCCCC=CCC(O)C(O)C(N)(CO)C(=O)O (stereo not drawn) [myriocin, 2-Amino-3,4-dihydroxy-2-(hydroxymethyl)-14-oxoicos-6-enoic acid]
ad libitum walking speed (average velocity during 10 minutes) (aged C57Bl/6JRj mice): increased | distance travelled ad libitum during 10 min (aged C57Bl/6JRj mice): longer | plasma levels of creatine kinase (CK) (mdx mice; after downhill running, myriocin 2 months vs controls): lower | grip strength (mdx mice; [1]): improved | performance in rotarod test (mdx mice; [1]): improved performance | performance in uphill running test (mdx mice; [1]): improved performance
